Reference: ChEMBL document CHEMBL3885881, “DrugMatrix”

Species on record: Rattus norvegicus
Test: DrugMatrix - Regimen: Daily Repeat
Assay type: toxicity, organism-based, Sprague-Dawley
Parameters: regimen Daily Repeat, gender Male, age 6-8 weeks
Settings: in vivo, po, route oral GAVAGE, vehicle 100 % SALINE
[1] = 0 mg/kg, 72 h, tissue Plasma, dose level Control, time 3 day
[2] = 0 mg/kg, 120 h, tissue Blood, dose level Control, time 5 day
[3] = 0 mg/kg, 120 h, tissue Plasma, dose level Control, time 5 day
[4] = 200 mg/kg, 72 h, tissue Blood, dose level Low, time 3 day
[5] = 200 mg/kg, 72 h, tissue Plasma, dose level Low, time 3 day
[6] = 200 mg/kg, 120 h, tissue Blood, dose level Low, time 5 day
[7] = 200 mg/kg, 120 h, tissue Plasma, dose level Low, time 5 day
[8] = 600 mg/kg, 72 h, tissue Blood, dose level High, time 3 day
[9] = 600 mg/kg, 72 h, tissue Plasma, dose level High, time 3 day
[10] = 600 mg/kg, 120 h, tissue Blood, dose level High, time 5 day
[11] = 600 mg/kg, 120 h, tissue Plasma, dose level High, time 5 day

## LEAD (II) ACETATE
[1]
  ALANINE AMINOTRANSFERASE: 50.67 u/L
  ALKALINE PHOSPHATASE: 356.33 u/L
  ASPARTATE AMINOTRANSFERASE: 78.17 u/L
  BLOOD UREA NITROGEN: 14.17 mg/dL
  CARBON DIOXIDE: 31.33 mmol/L
  CHLORIDE: 98.5 MEQ/L
  CHOLESTEROL: 76.5 mg/dL
  CREATINE PHOSPHOKINASE: 248.33 u/L
  CREATININE: 0.2 mg/dL
  LACTATE DEHYDROGENASE: 107 u/L
  LIPASE: 9.83 u/L
  PHOSPHORUS: 12.8 mg/dL
  POTASSIUM: 6.75 MEQ/L
  TOTAL BILIRUBIN: 0.18 mg/dL
  TOTAL PROTEIN: 5.98 G/DL
  URIC ACID: 1.42 mg/dL
[2]
  ABSOLUTE BASOPHIL: 0 CELLS/uL
  ABSOLUTE EOSINOPHIL: 0 CELLS/uL
  ABSOLUTE LYMPHOCYTE: 8681.17 CELLS/uL
  ABSOLUTE MONOCYTE: 79.83 CELLS/uL
  ABSOLUTE SEGMENTED NEUTROPHIL: 689 CELLS/uL
  BASOPHIL: 0%
  EOSINOPHIL: 0%
  ERYTHROCYTE COUNT: 5.49 x10E6/uL
  HEMATOCRIT: 33.55%
  HEMOGLOBIN: 13.1 G/DL
  LEUKOCYTE COUNT: 9.45 x10E3/uL
  LYMPHOCYTE: 92.33%
  MEAN CORPUSCULAR HEMOGLOBIN: 23.92 pg
  MEAN CORPUSCULAR HEMOGLOBIN CONCENTRATION: 39.07 G/DL
  MONOCYTE: 0.67%
  NEUTROPHIL: 7%
  NUCLEATED RED BLOOD CELLS: 0.17 /100WBC
  PLATELET COUNT: 1001.17 x10E3/uL
[3]
  ALANINE AMINOTRANSFERASE: 49.33 u/L
  ALKALINE PHOSPHATASE: 300.33 u/L
  ASPARTATE AMINOTRANSFERASE: 83.5 u/L
  BLOOD UREA NITROGEN: 16 mg/dL
  CHLORIDE: 100.5 MEQ/L
  CHOLESTEROL: 74.33 mg/dL
  CREATINE PHOSPHOKINASE: 489.67 u/L
  CREATININE: 0.35 mg/dL
  GLUCOSE: 151 mg/dL
  LACTATE DEHYDROGENASE: 133.67 u/L
  LIPASE: 11.17 u/L
  PHOSPHORUS: 10.88 mg/dL
  POTASSIUM: 5.5 MEQ/L
  SODIUM: 145.7 MEQ/L
  TOTAL BILIRUBIN: 0.2 mg/dL
  TOTAL PROTEIN: 6.05 G/DL
  URIC ACID: 0.68 mg/dL
[4]
  ABSOLUTE BASOPHIL: 0 CELLS/uL
  ABSOLUTE EOSINOPHIL: 42 CELLS/uL
  ABSOLUTE LYMPHOCYTE: 7845 CELLS/uL
  ABSOLUTE MONOCYTE: 45.67 CELLS/uL
  ABSOLUTE SEGMENTED NEUTROPHIL: 634 CELLS/uL
  BASOPHIL: 0%
  EOSINOPHIL: 0.67%
  ERYTHROCYTE COUNT: 5.3 x10E6/uL
  HEMATOCRIT: 32.4%
  HEMOGLOBIN: 12.73 G/DL
  LEUKOCYTE COUNT: 8.57 x10E3/uL
  LYMPHOCYTE: 91.67%
  MEAN CORPUSCULAR HEMOGLOBIN: 24.1 pg
  MONOCYTE: 0.67%
  NEUTROPHIL: 7%
  NUCLEATED RED BLOOD CELLS: 0.67 /100WBC
  PLATELET COUNT: 1060.33 x10E3/uL
[5]
  ALANINE AMINOTRANSFERASE: 44.33 u/L
  ALBUMIN: 4.1 G/DL
  ALKALINE PHOSPHATASE: 338.33 u/L
  ASPARTATE AMINOTRANSFERASE: 80.67 u/L
  BLOOD UREA NITROGEN: 14 mg/dL
  CHLORIDE: 100 MEQ/L
  CHOLESTEROL: 80 mg/dL
  CREATINE PHOSPHOKINASE: 412 u/L
  CREATININE: 0.48 mg/dL
  GLUCOSE: 189.33 mg/dL
  LACTATE DEHYDROGENASE: 140.33 u/L
  LIPASE: 11.67 u/L
  PHOSPHORUS: 13.53 mg/dL
  POTASSIUM: 5.59 MEQ/L
  TOTAL BILIRUBIN: 0.13 mg/dL
  TOTAL PROTEIN: 5.93 G/DL
  URIC ACID: 1.37 mg/dL
[6]
  ABSOLUTE BASOPHIL: 0 CELLS/uL
  ABSOLUTE EOSINOPHIL: 25 CELLS/uL
  ABSOLUTE MONOCYTE: 82.67 CELLS/uL
  ABSOLUTE SEGMENTED NEUTROPHIL: 668 CELLS/uL
  BASOPHIL: 0%
  EOSINOPHIL: 0.33%
  ERYTHROCYTE COUNT: 5.28 x10E6/uL
  HEMATOCRIT: 32.07%
  HEMOGLOBIN: 12.83 G/DL
  LEUKOCYTE COUNT: 11.1 x10E3/uL
  LYMPHOCYTE: 92.67%
  MEAN CORPUSCULAR HEMOGLOBIN: 24.3 pg
  MEAN CORPUSCULAR HEMOGLOBIN CONCENTRATION: 40.03 G/DL
  MONOCYTE: 0.67%
  NEUTROPHIL: 6.33%
  NUCLEATED RED BLOOD CELLS: 0.67 /100WBC
  PLATELET COUNT: 1339.67 x10E3/uL
[7]
  ALANINE AMINOTRANSFERASE: 57.33 u/L
  ALBUMIN: 3.9 G/DL
  ALKALINE PHOSPHATASE: 297 u/L
  ASPARTATE AMINOTRANSFERASE: 91 u/L
  BLOOD UREA NITROGEN: 14.33 mg/dL
  CARBON DIOXIDE: 30 mmol/L
  CHLORIDE: 99.33 MEQ/L
  CHOLESTEROL: 71.33 mg/dL
  CREATINE PHOSPHOKINASE: 225 u/L
  CREATININE: 0.46 mg/dL
  LACTATE DEHYDROGENASE: 122 u/L
  LIPASE: 9 u/L
  PHOSPHORUS: 10.9 mg/dL
  POTASSIUM: 5.95 MEQ/L
  TOTAL BILIRUBIN: 0.13 mg/dL
  TOTAL PROTEIN: 6.23 G/DL
  URIC ACID: 0.7 mg/dL
[8]
  ABSOLUTE BASOPHIL: 0 CELLS/uL
  ABSOLUTE EOSINOPHIL: 32.67 CELLS/uL
  ABSOLUTE LYMPHOCYTE: 9967.33 CELLS/uL
  ABSOLUTE MONOCYTE: 129.67 CELLS/uL
  ABSOLUTE SEGMENTED NEUTROPHIL: 570.33 CELLS/uL
  BASOPHIL: 0%
  EOSINOPHIL: 0.33%
  ERYTHROCYTE COUNT: 5.69 x10E6/uL
  HEMATOCRIT: 34.9%
  HEMOGLOBIN: 13.73 G/DL
  LEUKOCYTE COUNT: 10.7 x10E3/uL
  LYMPHOCYTE: 92.67%
  MEAN CORPUSCULAR HEMOGLOBIN: 24.13 pg
  NEUTROPHIL: 5.67%
  NUCLEATED RED BLOOD CELLS: 0.33 /100WBC
  PLATELET COUNT: 964.67 x10E3/uL
[9]
  ALANINE AMINOTRANSFERASE: 56.67 u/L
  ALKALINE PHOSPHATASE: 262 u/L
  ASPARTATE AMINOTRANSFERASE: 84.33 u/L
  BLOOD UREA NITROGEN: 13.33 mg/dL
  CHLORIDE: 99 MEQ/L
  CREATINE PHOSPHOKINASE: 319.33 u/L
  CREATININE: 0.55 mg/dL
  LACTATE DEHYDROGENASE: 97 u/L
  LIPASE: 14.33 u/L
  PHOSPHORUS: 11.57 mg/dL
  POTASSIUM: 5.33 MEQ/L
  TOTAL BILIRUBIN: 0.1 mg/dL
  TOTAL PROTEIN: 5.83 G/DL
  URIC ACID: 0.87 mg/dL
[10]
  ABSOLUTE BASOPHIL: 0 CELLS/uL
  ABSOLUTE EOSINOPHIL: 20.67 CELLS/uL
  ABSOLUTE LYMPHOCYTE: 6898.67 CELLS/uL
  ABSOLUTE MONOCYTE: 79.33 CELLS/uL
  ABSOLUTE SEGMENTED NEUTROPHIL: 568 CELLS/uL
  BASOPHIL: 0%
  EOSINOPHIL: 0.33%
  ERYTHROCYTE COUNT: 5.67 x10E6/uL
  HEMATOCRIT: 33.33%
  HEMOGLOBIN: 12.97 G/DL
  LEUKOCYTE COUNT: 7.57 x10E3/uL
  LYMPHOCYTE: 90.67%
  MEAN CORPUSCULAR HEMOGLOBIN: 22.87 pg
  MEAN CORPUSCULAR HEMOGLOBIN CONCENTRATION: 38.93 G/DL
  MEAN CORPUSCULAR VOLUME: 58.77 fL
  MONOCYTE: 1%
  NEUTROPHIL: 8%
  NUCLEATED RED BLOOD CELLS: 0 /100WBC
  PLATELET COUNT: 1398 x10E3/uL
[11]
  ALANINE AMINOTRANSFERASE: 48 u/L
  ALBUMIN: 4 G/DL
  ALKALINE PHOSPHATASE: 286.67 u/L
  ASPARTATE AMINOTRANSFERASE: 92.67 u/L
  BLOOD UREA NITROGEN: 13.33 mg/dL
  CHOLESTEROL: 76 mg/dL
  CREATINE PHOSPHOKINASE: 510.67 u/L
  CREATININE: 0.28 mg/dL
  GLUCOSE: 157.67 mg/dL
  LACTATE DEHYDROGENASE: 162.67 u/L
  LIPASE: 11 u/L
  POTASSIUM: 4.79 MEQ/L
  TOTAL BILIRUBIN: 0.13 mg/dL
  TOTAL PROTEIN: 5.6 G/DL
  URIC ACID: 0.33 mg/dL
